Laboratory results reported in ChEMBL document CHEMBL4765227, “Hit to lead optimization of a series of N-[4-(1,3-benzothiazol-2-yl)phenyl]acetamides as monoacylglycerol lipase inhibitors with potential anticancer activity” (Eur J Med Chem, 2016).

Key:
Type in all cases: functional
Conditions in all cases: read-out: GI
NCI-H522 = assay: Growth inhibition of human NCI-H522 cells at 10 uM incubated for 48 hrs by sulforhodamine B assay relative to control
DU-145 = assay: Growth inhibition of human DU-145 cells at 10 uM incubated for 48 hrs by sulforhodamine B assay relative to control
SF-539 = assay: Growth inhibition of human SF-539 cells at 10 uM incubated for 48 hrs by sulforhodamine B assay relative to control
UO-31 = assay: Growth inhibition of human UO-31 cells at 10 uM incubated for 48 hrs by sulforhodamine B assay relative to control
HCT-15 = assay: Growth inhibition of human HCT-15 cells at 10 uM incubated for 48 hrs by sulforhodamine B assay relative to control
MDA-MB-231 = assay: Growth inhibition of human MDA-MB-231 cells at 10 uM incubated for 48 hrs by sulforhodamine B assay relative to control
HCC 2998 = assay: Growth inhibition of human HCC 2998 cells at 10 uM incubated for 48 hrs by sulforhodamine B assay relative to control
T47D = assay: Growth inhibition of human T47D cells at 10 uM incubated for 48 hrs by sulforhodamine B assay relative to control
SK-OV-3 = assay: Growth inhibition of human SK-OV-3 cells at 10 uM incubated for 48 hrs by sulforhodamine B assay relative to control
ACHN = assay: Growth inhibition of human ACHN cells at 10 uM incubated for 48 hrs by sulforhodamine B assay relative to control
SF-268 = assay: Growth inhibition of human SF-268 cells at 10 uM incubated for 48 hrs by sulforhodamine B assay relative to control
HCT-116 = assay: Growth inhibition of human HCT-116 cells at 10 uM incubated for 48 hrs by sulforhodamine B assay relative to control
CCRF-CEM = assay: Growth inhibition of human CCRF-CEM cells at 10 uM incubated for 48 hrs by sulforhodamine B assay relative to control
COLO 205 = assay: Growth inhibition of human COLO 205 cells at 10 uM incubated for 48 hrs by sulforhodamine B assay relative to control
RPMI-8226 = assay: Growth inhibition of human RPMI-8226 cells at 10 uM incubated for 48 hrs by sulforhodamine B assay relative to control
SK-MEL-5 = assay: Growth inhibition of human SK-MEL-5 cells at 10 uM incubated for 48 hrs by sulforhodamine B assay relative to control
UACC-62 = assay: Growth inhibition of human UACC-62 cells at 10 uM incubated for 48 hrs by sulforhodamine B assay relative to control
HOP-92 = assay: Growth inhibition of human HOP-92 cells at 10 uM incubated for 48 hrs by sulforhodamine B assay relative to control
SW-620 = assay: Growth inhibition of human SW-620 cells at 10 uM incubated for 48 hrs by sulforhodamine B assay relative to control
MDA-MB-435 = assay: Growth inhibition of human MDA-MB-435 cells at 10 uM incubated for 48 hrs by sulforhodamine B assay relative to control
UACC-257 = assay: Growth inhibition of human UACC-257 cells at 10 uM incubated for 48 hrs by sulforhodamine B assay relative to control
OVCAR-5 = assay: Growth inhibition of human OVCAR-5 cells at 10 uM incubated for 48 hrs by sulforhodamine B assay relative to control
HT-29 = assay: Growth inhibition of human HT-29 cells at 10 uM incubated for 48 hrs by sulforhodamine B assay relative to control
NCI-H460 = assay: Growth inhibition of human NCI-H460 cells at 10 uM incubated for 48 hrs by sulforhodamine B assay relative to control
M14 = assay: Growth inhibition of human M14 cells at 10 uM incubated for 48 hrs by sulforhodamine B assay relative to control
MDA-MB-468 = assay: Growth inhibition of human MDA-MB-468 cells at 10 uM incubated for 48 hrs by sulforhodamine B assay relative to control
TK-10 = assay: Growth inhibition of human TK-10 cells at 10 uM incubated for 48 hrs by sulforhodamine B assay relative to control
PC-3 = assay: Growth inhibition of human PC-3 cells at 10 uM incubated for 48 hrs by sulforhodamine B assay relative to control
RXF 393 = assay: Growth inhibition of human RXF 393 cells at 10 uM incubated for 48 hrs by sulforhodamine B assay relative to control
NCI-H322M = assay: Growth inhibition of human NCI-H322M cells at 10 uM incubated for 48 hrs by sulforhodamine B assay relative to control
SN12C = assay: Growth inhibition of human SN12C cells at 10 uM incubated for 48 hrs by sulforhodamine B assay relative to control
U-251 = assay: Growth inhibition of human U-251 cells at 10 uM incubated for 48 hrs by sulforhodamine B assay relative to control
Hs-578T = assay: Growth inhibition of human Hs-578T cells at 10 uM incubated for 48 hrs by sulforhodamine B assay relative to control
NCI-H23 = assay: Growth inhibition of human NCI-H23 cells at 10 uM incubated for 48 hrs by sulforhodamine B assay relative to control
SNB-19 = assay: Growth inhibition of human SNB-19 cells at 10 uM incubated for 48 hrs by sulforhodamine B assay relative to control
OVCAR-8 = assay: Growth inhibition of human OVCAR-8 cells at 10 uM incubated for 48 hrs by sulforhodamine B assay relative to control
A549 = assay: Growth inhibition of human A549/ATCC cells at 10 uM incubated for 48 hrs by sulforhodamine B assay relative to control
NCI-H226 = assay: Growth inhibition of human NCI-H226 cells at 10 uM incubated for 48 hrs by sulforhodamine B assay relative to control
SF-295 = assay: Growth inhibition of human SF-295 cells at 10 uM incubated for 48 hrs by sulforhodamine B assay relative to control
KM12 = assay: Growth inhibition of human KM12 cells at 10 uM incubated for 48 hrs by sulforhodamine B assay relative to control
SR = assay: Growth inhibition of human SR cells at 10 uM incubated for 48 hrs by sulforhodamine B assay relative to control
OVCAR-4 = assay: Growth inhibition of human OVCAR-4 cells at 10 uM incubated for 48 hrs by sulforhodamine B assay relative to control
LOX IMVI = assay: Growth inhibition of human LOX IMVI cells at 10 uM incubated for 48 hrs by sulforhodamine B assay relative to control
HL-60(TB) = assay: Growth inhibition of human HL-60(TB) cells at 10 uM incubated for 48 hrs by sulforhodamine B assay relative to control

`COc1ccc(NCC(=O)Nc2ccc(-c3nc4ccccc4s3)cc2)cc1` was tested, and the inhibition of growth at 10 µM (NCI-H522) was 5.02%, the inhibition of growth at 10 µM (DU-145) was 0.77% and the inhibition of growth at 10 µM (SF-539) was 3.41%. It also gave an inhibition of growth at 10 µM (UO-31) of 28.1%, an inhibition of growth at 10 µM (HCT-15) of 10.1% and an inhibition of growth at 10 µM (MDA-MB-231) of 27.5%. The inhibition of growth at 10 µM (HCC 2998) was 3.49%, the inhibition of growth at 10 µM (T47D) was 31.2% and the inhibition of growth at 10 µM (SK-OV-3) was -7.58%. For the same compound, the inhibition of growth at 10 µM (ACHN) was -3.5%, the inhibition of growth at 10 µM (SF-268) was 10.5% and the inhibition of growth at 10 µM (HCT-116) was 11.6%. The inhibition of growth at 10 µM (CCRF-CEM) was 40.8%, the inhibition of growth at 10 µM (COLO 205) was -6.9% and the inhibition of growth at 10 µM (RPMI-8226) was 13.6%. The inhibition of growth at 10 µM (SK-MEL-5) was 2.74%, the inhibition of growth at 10 µM (UACC-62) was 0.37% and the inhibition of growth at 10 µM (HOP-92) was 29.1%. It also gave an inhibition of growth at 10 µM (SW-620) of -4.02%, an inhibition of growth at 10 µM (MDA-MB-435) of -7.51% and an inhibition of growth at 10 µM (UACC-257) of -3.88%. The inhibition of growth at 10 µM (OVCAR-5) was 1.84%, the inhibition of growth at 10 µM (HT-29) was -8.15% and the inhibition of growth at 10 µM (NCI-H460) was 0.74%. The inhibition of growth at 10 µM (M14) was 0.16%, the inhibition of growth at 10 µM (MDA-MB-468) was 5.6% and the inhibition of growth at 10 µM (TK-10) was -8.6%. The inhibition of growth at 10 µM (PC-3) was 12.9%, the inhibition of growth at 10 µM (RXF 393) was -1.89% and the inhibition of growth at 10 µM (NCI-H322M) was 3%. For the same compound, the inhibition of growth at 10 µM (SN12C) was 5.87%, the inhibition of growth at 10 µM (U-251) was 19.1% and the inhibition of growth at 10 µM (Hs-578T) was 2.83%. It also gave an inhibition of growth at 10 µM (NCI-H23) of 14.3%, an inhibition of growth at 10 µM (SNB-19) of 11.4% and an inhibition of growth at 10 µM (OVCAR-8) of 4.93%. The inhibition of growth at 10 µM (A549) was 10.5%, the inhibition of growth at 10 µM (NCI-H226) was 5.16% and the inhibition of growth at 10 µM (SF-295) was 3.2%. It also gave an inhibition of growth at 10 µM (KM12) of 3.03%, an inhibition of growth at 10 µM (SR) of 15.6% and an inhibition of growth at 10 µM (OVCAR-4) of 12.8%. It also gave an inhibition of growth at 10 µM (LOX IMVI) of 8.68% and an inhibition of growth at 10 µM (HL-60(TB)) of 20.9%.
With `Cc1ccc(NCC(=O)Nc2ccc(-c3nc4ccccc4s3)cc2)cc1` the inhibition of growth at 10 µM (NCI-H522) was 12.3%, the inhibition of growth at 10 µM (DU-145) was 5.52% and the inhibition of growth at 10 µM (SF-539) was 2.9%. The inhibition of growth at 10 µM (UO-31) was 37.5%, the inhibition of growth at 10 µM (HCT-15) was 13.4% and the inhibition of growth at 10 µM (MDA-MB-231) was 22.3%. The inhibition of growth at 10 µM (HCC 2998) was 17%, the inhibition of growth at 10 µM (T47D) was 33.8% and the inhibition of growth at 10 µM (SK-OV-3) was -13.1%. For the same compound, the inhibition of growth at 10 µM (ACHN) was -6.82%, the inhibition of growth at 10 µM (SF-268) was 12.6% and the inhibition of growth at 10 µM (HCT-116) was 5.72%. For the same compound, the inhibition of growth at 10 µM (CCRF-CEM) was 60.1%, the inhibition of growth at 10 µM (COLO 205) was -3.48% and the inhibition of growth at 10 µM (RPMI-8226) was 18.6%. The inhibition of growth at 10 µM (SK-MEL-5) was 11.3%, the inhibition of growth at 10 µM (UACC-62) was 14.5% and the inhibition of growth at 10 µM (HOP-92) was 15.7%. The inhibition of growth at 10 µM (SW-620) was -7.34%, the inhibition of growth at 10 µM (MDA-MB-435) was -1.83% and the inhibition of growth at 10 µM (UACC-257) was 5.3%. For the same compound, the inhibition of growth at 10 µM (OVCAR-5) was -6.57%, the inhibition of growth at 10 µM (HT-29) was -6.9% and the inhibition of growth at 10 µM (NCI-H460) was -2.34%. It also gave an inhibition of growth at 10 µM (M14) of 3.66%, an inhibition of growth at 10 µM (MDA-MB-468) of 13% and an inhibition of growth at 10 µM (TK-10) of -7.12%. The inhibition of growth at 10 µM (PC-3) was 8.39%, the inhibition of growth at 10 µM (RXF 393) was 10.7% and the inhibition of growth at 10 µM (NCI-H322M) was 4.73%. The inhibition of growth at 10 µM (SN12C) was 11.1%, the inhibition of growth at 10 µM (U-251) was 19.4% and the inhibition of growth at 10 µM (Hs-578T) was -3.42%. It also gave an inhibition of growth at 10 µM (NCI-H23) of 16.4%, an inhibition of growth at 10 µM (SNB-19) of 10.5% and an inhibition of growth at 10 µM (OVCAR-8) of 7.13%. The inhibition of growth at 10 µM (A549) was 13.8%, the inhibition of growth at 10 µM (NCI-H226) was 5.78% and the inhibition of growth at 10 µM (SF-295) was -3.28%. The inhibition of growth at 10 µM (KM12) was 0.91%, the inhibition of growth at 10 µM (SR) was 19.1% and the inhibition of growth at 10 µM (OVCAR-4) was 14.5%. The inhibition of growth at 10 µM (LOX IMVI) was 22.8% and the inhibition of growth at 10 µM (HL-60(TB)) was 18.2%.
